The text below walks through data of patent publication US20230082430A1 (C4 Therapeutics, Inc., priority 2019, published 2023).

Each structure is given as a SMILES string. Bounds are passed on as bounds.

In the first experiment the test system is NCIH929.1 cells. In words: Cell viability assay for Table 2 (CellTiter-Glo 2.0, ATP quantification, 96 hr). The following applies: 96 h, NCIH929.1 cell viability, 96 hr, top concentration 1 μM, 14 points half log titration; read-out: IC50. It counts as cell-based. The text has this: Cell Viability Assay for Table 2
CellTiter-Glo® 2.0 Assay was purchased from Promega (Madison, Wis., USA). NCIH929.1 cell line was purchased from ATCC (Manassas, Va., USA). Cell culture flasks and 384-well microplates were acquired from VWR (Radnor, Pa., USA).
The term IC50 denotes the concentration at which inhibition is half-maximal. Regarding `CC(C)(C)OC(=O)N1CCC(c2ccc3c4c(cccc24)C(=O)N3C2CCC(=O)NC2=O)CC1` (stereo not drawn) [Compound 276, tert-butyl 4-[1-(2,6-dioxo-3-piperidyl)-2-oxo-benzo[cd]indol-6-yl]piperidine-1-carboxylate], the IC50 was over 999 nM.

As to `O=C1CCC(N2C(=O)c3cccc4c(Cc5ccccc5)ccc2c34)C(=O)N1` (stereo not drawn) [Compound 277, 3-(6-benzyl-2-oxo-benzo[cd]indol-1-yl)piperidine-2,6-dione], the IC50 is under 1 nM. The same measure, in the same setting: the result for `O=C1CCC(N2C(=O)c3cccc4c(Cc5ccc(CN6CCOCC6)c(F)c5)ccc2c34)C(=O)N1` (stereo not drawn) [Compound 278, 3-[6-{[3-fluoro-4-(morpholinomethyl)phenyl]methyl}-2-oxo-benzo[cd]indol-1-yl]piperidine-2,6-dione] reads under 1 nM. The same measure, in the same setting: for `N#Cc1ccc(N2CCN(Cc3ccc(Cc4ccc5c6c(cccc46)C(=O)N5C4CCC(=O)NC4=O)cn3)CC2)c(F)c1` (stereo not drawn) [Compound 279, 4-[4-[[5-[[1-(2,6-dioxo-3-piperidyl)-2-oxo-benzo[cd]indol-6-yl]methyl]-2-pyridyl]methyl]piperazin-1-yl]-3-fluoro-benzonitrile] the value was under 1 nM.

Consider `Cc1cc(Cc2ccc3c4c(cccc24)C(=O)N3C2CCC(=O)NC2=O)ccc1CN1CCN(c2ccccc2F)CC1` (stereo not drawn) [Compound 286, 3-[6-[[4-[[4-(2-fluorophenyl)piperazin-1-yl]methyl]-3-methyl-phenyl]methyl]-2-oxo-benzo[cd]indol-1-yl]piperidine-2,6-dione], for which the half-maximal inhibitory concentration (IC50) is under 1 nM.

For the molecule `CN(C)C1(C(=O)N2CCC(n3cc(Cc4ccc5c6c(cccc46)C(=O)N5C4CCC(=O)NC4=O)cn3)CC2)CCC1` (stereo not drawn) [Compound 287, 3-[6-[[1-[1-[1-(dimethylamino)cyclobutanecarbonyl]-4-piperidyl]pyrazol-4-yl]methyl]-2-oxo-benzo[cd]indol-1-yl]piperidine-2,6-dione], the IC50 was under 1 nM. Same read-out and setting: the result for `O=C1CCC(N2C(=O)c3cccc4c(Cc5cnn(C6CCN(C7CC8(CCC8)C7)CC6)c5)ccc2c34)C(=O)N1` (stereo not drawn) [Compound 288, 3-[2-oxo-6-[[1-(1-spiro[3.3]heptan-2-yl-4-piperidyl)pyrazol-4-yl]methyl]benzo[cd]indol-1-yl]piperidine-2,6-dione] reads under 1 nM. The same measure, in the same setting: the result for `CC1(C(=O)N2CCC(n3cc(Cc4cnc5c6c(cccc46)C(=O)N5C4CCC(=O)NC4=O)cn3)CC2)CCC1` (stereo not drawn) [Compound 289, 3-[20-[[1-[1-(1-methylcyclobutanecarbonyl)-4-piperidyl]pyrazol-4-yl]methyl]-26-oxo-30,35-diazatricyclododeca-1,3(18),5(20),17(21),22(30)-pentaen-35-yl]piperidine-2,6-dione] reads under 100 nM; that for `CC1(C(=O)N2CCC(c3cccc(Cc4ccc5c6c(cccc46)C(=O)N5C4CCC(=O)NC4=O)c3)CC2)CCC1` (stereo not drawn) [Compound 290, 3-[6-[[3-[1-(1-methylcyclobutanecarbonyl)-4-piperidyl]phenyl]methyl]-2-oxo-benzo[cd]indol-1-yl]piperidine-2,6-dione], under 1 nM. As for `CC(C)(C)OC(=O)N1CC2CC(C(=O)N3CCC(n4cc(Cc5ccc6c7c(cccc57)C(=O)N6C5CCC(=O)NC5=O)cn4)CC3)(C2)C1` (stereo not drawn) [Compound 292, tert-butyl 1-(4-(4-((1-(2,6-dioxopiperidin-3-yl)-2-oxo-1,2-dihydrobenzo[cd]indol-6-yl)methyl)-1H-pyrazol-1-yl)piperidine-1-carbonyl)-3-azabicyclo[3.1.1]heptane-3-carboxylate], the IC50 is under 1 nM.

For the molecule `CN1C(=O)CCC(N2C(=O)c3cccc4c(Cc5cnn(C6CCN(CC7(C)CCC7)CC6)c5)ccc2c34)C1=O` (stereo not drawn) [Compound 294, 1-methyl-3-(6-((1-(1-((1-methylcyclobutyl)methyl)piperidin-4-yl)-1H-pyrazol-4-yl)methyl)-2-oxobenzo[cd]indol-1(2H)-yl)piperidine-2,6-dione], the IC50 is under 100 nM.

The next experiment relates to NCIH929.1 cells. In words: Cell viability assay for Table 1 (CellTiter-Glo 2.0, ATP quantification, 96 hr). It counts as cell-based. The note with it: NCIH929.1 cell viability, top concentration 1 μM, 10 points half log titration, cytostatic control. The method, then: Example 171. Cell Viability Assay for Table 1
RPMI 1640 medium, fetal bovine serum (FBS) and 2-mercaptoethanol were purchased from Gibco (Grand Island, N.Y., USA). CellTiter-Glo® 2.0 Assay was purchased from Promega (Madison, Wis., USA). NCIH929.1 cell line was purchased from ATCC (Manassas, Va., USA). Cell culture flasks and 384-well microplates were acquired from VWR (Radnor, Pa., USA).
At the same day of compound treatment, CellTiter-Glo® 2.0 was added to a plate with cells treated in the absence of the test compound to establish Cytostatic control value (Gm).
As usually defined, the GI50 is the concentration giving 50% growth inhibition. `CC(C)(C)OC(=O)N1CCC(n2cc(Cc3ccc4c5c(cccc35)C(=O)N4C3CCC(=O)NC3=O)cn2)CC1` (stereo not drawn) [Compound 2, tert-Butyl 4-(4-((1-(2,6-Dioxopiperidin-3-yl)-2-oxo-1,2-dihydrobenzo[cd]indol-6-yl)methyl)-1H-pyrazol-1-yl)piperidine-1-carboxylate]: the GI50 was under 1 nM. Turning to `O=C1CCC(N2C(=O)c3cccc4c(Cc5cnn(C6CCN(C(=O)C78C9C%10C%11C9C7C%11C%108)CC6)c5)ccc2c34)C(=O)N1` (stereo not drawn) [Compound 3, 3-(6-((1-(1-(Cubane-1-carbonyl)piperidin-4-yl)-1H-pyrazol-4-yl)methyl)-2-oxobenzo[cd]indol-1(2H)-yl)piperidine-2,6-dione], the 50% growth inhibitory concentration (GI50) was under 1 nM.

As for `CC1(C(=O)N2CCC(n3cc(Cc4ccc5c6c(cccc46)C(=O)N5C4CCC(=O)NC4=O)cn3)CC2)CCC1` (stereo not drawn) [Compound 4, 3-(6-((1-(1-(1-Methylcyclobutane-1-carbonyl)piperidin-4-yl)-1H-pyrazol-4-yl)methyl)-2-oxobenzo[cd]indol-1(2H)-yl)piperidine-2,6-dione], the GI50 was under 1 nM.

`CC1(n2cc(Cc3ccc4c5c(cccc35)C(=O)N4C3CCC(=O)NC3=O)cn2)CCN(C(=O)C23C4C5C6C4C2C6C53)CC1` (stereo not drawn) [Compound 18, 3-(6-((1-(1-(Cubane-1-carbonyl)-4-methylpiperidin-4-yl)-1H-pyrazol-4-yl)methyl)-2-oxobenzo[cd]indol-1(2H)-yl)piperidine-2,6-dione] had a GI50 of under 1 nM.
